Here are results for 23 molecules from US12344610B2, “APOL1 inhibitors and methods of use” (Maze Therapeutics, Inc., priority 2022, dated 2025).

Broadly, the EC50 is the concentration that produces a half-maximal response.

Where two headings read alike, the source gives them in different places.

Experiment [1] has as its system Trypanosoma brucei Lister 427 VSG221 with APOL1 G1 recombinant protein. The experiment can be described thus: APOL1 G1 trypanosome cell rescue assay (Example B5). Type of experiment: cell-based. Conditions: geometric mean of at least 2 assay runs, † = single assay run. The method, boiled down: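 Compounds in duplicate 2-fold, 11-point series with 0.4% DMSO final. Next, tag-free mature APOL1 variant protein went in from a 2 μg/mL solution, then trypanosomes to 250 per well. Plates incubated 20 h humidified at 37° C, equilibrated to room temperature, and CellTiter-Glo added for luminescence.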

For experiment [2], the system named is HEK293 cells overexpressing APOL1 G2. The experiment can be described thus: APOL1 G2 HEK293 cell rescue assay (reversal of cell death caused by overexpression of APOL1). Type of experiment: cell-based. Conditions: geometric mean of at least 2 assay runs, † = single assay run. The gist of the method:
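EC50 is the half-maximal effective concentration for reversing cell death driven by APOL1 G2 overexpression in HEK293 cells. Reported as geometric mean of at least 2 runs on separate days, each run averaging duplicate wells per plate; some values from a single run.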

Setting [3] is: Trypanosoma brucei, 20 h, read-out: APOL1 G1 Trypanosome Rescue EC50, Trypanosoma brucei Lister 427 VSG221 with APOL1 G1 recombinant protein, 20 hours, CellTiter-Glo.
[4] abbreviates: Homo sapiens, HEK293, HEK293 overexpressing APOL1 G2.
The mark [5] stands for this setting: read-out: APOL1 G1 Trypanosome Rescue EC50, Trypanosoma brucei Lister 427 VSG221 with APOL1 G1 recombinant protein, 20 hours, CellTiter-Glo.

With `CC(COc1ccc2c(c1)CCC(=O)N2C)N1CCC2(CC1)C(=O)Nc1ccc(Cl)cc12` (single isomer, unassigned) [Compound 200], the EC50 was found to be 0.192 µM in experiment [1] (setting [3]) and 0.0872 µM in experiment [2] (HEK293 overexpressing APOL1 G2).
For `CC(COc1ccc2c(c1)CCC(=O)N2C)N1CCC2(CC1)C(=O)Nc1ccc(C#N)cc12` (single isomer, unassigned) [Compound 203, (S) or (R)-1′-{1-[(1-methyl-2-oxo-1,2,3,4-tetrahydroquinolin-6-yl)oxy]propan-2-yl}-2-oxo-1,2-dihydrospiro[indole-3,4′-piperidine]-5-carbonitrile], in that order: 0.583 µM and 0.187 µM.
As for `C[C@@H](COc1ccc(S(C)(=O)=O)c(C(F)F)c1)N1CCC2(CC1)C(=O)Nc1ccc(Cl)cc12` (single isomer, unassigned) [Compound 210], the figures for the EC50 in experiment [1] (setting [3]) and in experiment [2] (setting [4]) were 0.0711 µM and 0.0633 µM, respectively.
On to `C[C@@H](COc1ccc2c(cnn2C)c1)N1CCC2(CC1)C(=O)Nc1ccc(Cl)cc12` (single isomer, unassigned) [Compound 211], for which the EC50 in experiment [1] (setting [3]) stood at 0.527 µM; in experiment [2] (setting [4]), 0.138 µM.
The corresponding values for `C[C@@H](COc1ccc(S(C)(=O)=O)c(C(F)F)c1)N1CCC2(CC1)C(=O)Nc1ccc(C#N)cc12` (single isomer, unassigned) [Compound 212] are 0.103 µM and 0.0814 µM.
Take `CS(=O)(=O)c1ccc(OCCN2CCC3(CC2)C(=O)Nc2ccc(Cl)cc23)cc1C(F)CF` (single isomer, unassigned) [Compound 218, 5-chloro-1′-(2-{3-[(1S or 1R)-1,2-difluoroethyl]-4-methanesulfonylphenoxy}ethyl)-1,2-dihydrospiro[indole-3,4′-piperidin]-2-one]: the concentration for a half-maximal effect (EC50) in experiment [1] (setting [5]) amounted to 0.108 µM; in experiment [2] (setting [4]) it was 0.0256 µM.
Consider `CS(=O)(=O)c1ccc(OCCN2CCC3(CC2)C(=O)Nc2ccc(Cl)cc23)cc1C(F)CF` (single isomer, unassigned) [Compound 219, 5-chloro-1′-(2-{3-[(1R or 1S)-1,2-difluoroethyl]-4-methanesulfonylphenoxy}ethyl)-1,2-dihydrospiro[indole-3,4′-piperidin]-2-one], for which the concentration for a half-maximal effect (EC50) came to 0.039 µM in experiment [1] (setting [5]) and 0.0263 µM in experiment [2] (HEK293 overexpressing APOL1 G2).
Regarding `CS(=O)(=O)c1ccc(OCCN2CCC3(CC2)C(=O)Nc2ccc(C#N)cc23)cc1C(F)CF` (single isomer, unassigned) [Compound 221, 1′-(2-{3-[(1S or 1R)-1,2-difluoroethyl]-4-methanesulfonyl-phenoxy}ethyl)-2-oxo-1,2-dihydrospiro [indole-3,4′-piperidine]-5-carbonitrile], the 50% effective concentration (EC50) in experiment [1] (setting [3]) was found to be 0.129 µM; in experiment [2] (HEK293 overexpressing APOL1 G2), 0.0474 µM.
For `CC(COc1ccc(C2(S(C)(=O)=O)COC2)cc1)N1CCC2(CC1)C(=O)Nc1ccc(C#N)cc12` (single isomer, unassigned) [Compound 263, (S) or (R)-1′-{1-[4-(3-methanesulfonyloxetan-3-yl)phenoxy]propan-2-yl}-2-oxo-1,2-dihydrospiro[indole-3,4′-piperidine]-5-carbonitrile], the EC50 in experiment [1] (setting [3]) was 0.32 µM; in experiment [2] (HEK293 overexpressing APOL1 G2) it was 0.198 µM.
`CN1C(=O)C2(CCN(CCOc3ccc(C4(S(C)(=O)=O)CC(O)C4)cc3)CC2)c2cc(C(F)F)ccc21` (single isomer, unassigned) [Compound 278, 5-(difluoromethyl)-1-methyl-1′-(2-{4-[(cis) or (trans)-3-hydroxy-1-methanesulfonylcyclobutyl]phenoxy}ethyl)-1,2-dihydrospiro[indole-3,4′-piperidin]-2-one]: the EC50 was determined as 0.111 µM in experiment [1] (setting [5]) and 0.023 µM in experiment [2] (HEK293 overexpressing APOL1 G2).
For the molecule `CS(=O)(=O)C1(c2ccc(OCCN3CCC4(CC3)C(=O)Nc3ccc(C(F)F)cc34)cc2)CC(O)C1` (single isomer, unassigned) [Compound 281, 5-(difluoromethyl)-1′-(2-{4-[(cis) or (trans)-3-hydroxy-1-methanesulfonylcyclobutyl]phenoxy}ethyl)-1,2-dihydrospiro[indole-3,4′-piperidin]-2-one], the values for the concentration giving a half-maximal response (EC50) in experiment [1] (setting [5]) and in experiment [2] (HEK293 overexpressing APOL1 G2) were 0.101 µM and 0.056 µM, respectively.
For `CC(O)c1ncc(OCCN2CCC3(CC2)C(=O)Nc2ccc(Cl)cc23)cn1` (single isomer, unassigned) [Compound 285, 5-chloro-1′-[2-({2-[(1S) or (1R)-1-hydroxyethyl]pyrimidin-5-yl}oxy)ethyl]-1,2-dihydrospiro[indole-3,4′-piperidin]-2-one], the EC50 in experiment [1] (setting [3]) turned out to be 0.749 µM; in experiment [2] (setting [4]), 0.2 µM.
As to `CC(O)c1ncc(OCCN2CCC3(CC2)C(=O)Nc2ccc(Cl)cc23)cn1` (single isomer, unassigned) [Compound 286, 5-chloro-1′-[2-({2-[(1R) or (1S)-1-hydroxyethyl]pyrimidin-5-yl}oxy)ethyl]-1,2-dihydrospiro[indole-3,4′-piperidin]-2-one], the concentration giving a half-maximal response (EC50) in experiment [1] (setting [5]) turned out to be 0.629 µM; in experiment [2] (HEK293 overexpressing APOL1 G2) it was 0.181 µM.
With `CC(O)c1ncc(OCCN2CCC3(CC2)C(=O)Nc2ccc(C(F)F)cc23)cc1C(F)(F)F` (single isomer, unassigned) [Compound 287, 5-(difluoromethyl)-1′-[2-({6-[(1S) or (1R)-1-hydroxyethyl]-5-(trifluoromethyl)pyridin-3-yl}oxy)ethyl]-1,2-dihydrospiro[indole-3,4′-piperidin]-2-one], the EC50 was determined as 0.05 µM in experiment [1] (setting [3]) and 0.0335 µM in experiment [2] (setting [4]).
Turning to `CC(O)c1ncc(OCCN2CCC3(CC2)C(=O)Nc2ccc(C(F)F)cc23)cc1C(F)(F)F` (single isomer, unassigned) [Compound 288, 5-(difluoromethyl)-1′-[2-({6-[(1R) or (1S)-1-hydroxyethyl]-5-(trifluoromethyl)pyridin-3-yl}oxy)ethyl]-1,2-dihydrospiro[indole-3,4′-piperidin]-2-one], the 50% effective concentration (EC50) in experiment [1] (setting [5]) came out at 0.0361 µM; in experiment [2] (HEK293 overexpressing APOL1 G2) it was 0.0341 µM.
In the case of `CC[C@]1(O)C[C@H](N2C(=O)CCc3cc(OCCN4CCC5(CC4)C(=O)Nc4ccc(Cl)cc45)cnc32)C1` (single isomer, unassigned) [Compound 290, 5-chloro-1′-[2-({7-oxo-8-[(trans)-3-ethyl-3-hydroxycyclobutyl]-5,6,7,8-tetrahydro-1,8-naphthyridin-3-yl}oxy)ethyl]-1,2-dihydrospiro[indole-3,4′-piperidin]-2-one], the EC50 in experiment [1] (setting [3]) was 0.0692 µM; in experiment [2] (setting [4]), 0.0182 µM.
In the case of `CC(O)c1ncc(OCCN2CCC3(CC2)C(=O)Nc2ccc(Cl)cc23)cc1C(F)(F)F` (single isomer, unassigned) [Compound 291, 5-chloro-1′-[2-({6-[(1R) or (1S)-1-hydroxyethyl]-5-(trifluoromethyl)pyridin-3-yl}oxy)ethyl]-1,2-dihydrospiro[indole-3,4′-piperidin]-2-one], the EC50 stood at 0.0797 µM in experiment [1] (setting [5]) and 0.0264 µM in experiment [2] (setting [4]).
As for `CC(O)c1ncc(OCCN2CCC3(CC2)C(=O)Nc2ccc(Cl)cc23)cc1C(F)(F)F` (single isomer, unassigned) [Compound 292, 5-chloro-1′-[2-({6-[(1S) or (1R)-1-hydroxyethyl]-5-(trifluoromethyl)pyridin-3-yl}oxy)ethyl]-1,2-dihydrospiro[indole-3,4′-piperidin]-2-one], the concentration giving a half-maximal response (EC50) in experiment [1] (setting [5]) worked out at 0.0396 µM; in experiment [2] (HEK293 overexpressing APOL1 G2) it was 0.0232 µM.
For `O=C1CCc2cc(OCCN3CCC4(CC3)C(=O)Nc3ccc(Cl)cc34)cnc2N1[C@H]1C[C@@](O)(C2CC2)C1` (single isomer, unassigned) [Compound 297, 5-chloro-1′-[2-({7-oxo-8-[(trans)-3-cyclopropyl-3-hydroxycyclobutyl]-5,6,7,8-tetrahydro-1,8-naphthyridin-3-yl}oxy)ethyl]-1,2-dihydrospiro[indole-3,4′-piperidin]-2-one], the EC50 was found to be 0.0854 µM in experiment [1] (setting [3]) and 0.0318 µM in experiment [2] (setting [4]).
The corresponding values for `C[C@]1(O)C[C@H](N2C(=O)CCc3cc(OCCN4CCC5(CC4)C(=O)Nc4ccc(Cl)cc45)cnc32)C1` (single isomer, unassigned) [Compound 307, 5-chloro-1′-[2-({7-oxo-8-[(trans)-3-hydroxy-3-methylcyclobutyl]-5,6,7,8-tetrahydro-1,8-naphthyridin-3-yl}oxy)ethyl]-1,2-dihydrospiro[indole-3,4′-piperidin]-2-one] are 0.0797 µM and 0.0204 µM.
Turning to `CS(=O)(=O)c1ccc(OCCN2CCC3(CC2)C(=O)N(CCO)c2ccc(Cl)cc23)cc1` [Compound 18, 5-chloro-1-(2-hydroxyethyl)-1′-[2-(4-methanesulfonylphenoxy)ethyl]-1,2-dihydrospiro[indole-3,4′-piperidin]-2-one], the concentration giving a half-maximal response (EC50) in experiment [1] (setting [3]) stood at 1.54 µM; in experiment [2] (setting [4]), 0.225 µM.
The corresponding values for `COCCN1C(=O)C2(CCN(CCOc3ccc(S(C)(=O)=O)cc3)CC2)c2cc(Cl)ccc21` [Compound 20, 5-chloro-1′-[2-(4-methanesulfonylphenoxy)ethyl]-1-(2-methoxyethyl)-1,2-dihydrospiro[indole-3,4′-piperidin]-2-one] are 0.949 µM and 0.294 µM.
In the case of `CN1C(=O)C2(CCN(CCOc3ccc(S(=O)(=O)CCCS(C)(=O)=O)cc3)CC2)c2cc(Cl)ccc21` [Compound 23, 5-chloro-1′-{2-[4-(3-methanesulfonylpropanesulfonyl)phenoxy]ethyl}-1-methyl-1,2-dihydrospiro[indole-3,4′-piperidin]-2-one], the EC50 in experiment [1] (setting [3]) was 0.612 µM; in experiment [2] (setting [4]), 0.135 µM.
